Source: publication PMC8637440, “Structural Modifications Yield Novel Insights Into the Intriguing Pharmacodynamic Potential of Anti-inflammatory Nitro-Fatty Acids” (Frontiers in Pharmacology, 2021)
Entries after “also recorded” stand apart in the source; their conditions may differ.

What was measured:
COX-2 = biological target: T1, COX-2 (Homo sapiens, UniProt P35354); assay: Cell-based COX-2 activity assay in IL-1β-stimulated A549 cells; parameters: endogenous in cells; host or cells: A549 stimulated with 1 ng/ml IL-1β; settings: 10 µM, 24 h, 1 ng/ml IL-1β
T1 sequence (P35354 18-604): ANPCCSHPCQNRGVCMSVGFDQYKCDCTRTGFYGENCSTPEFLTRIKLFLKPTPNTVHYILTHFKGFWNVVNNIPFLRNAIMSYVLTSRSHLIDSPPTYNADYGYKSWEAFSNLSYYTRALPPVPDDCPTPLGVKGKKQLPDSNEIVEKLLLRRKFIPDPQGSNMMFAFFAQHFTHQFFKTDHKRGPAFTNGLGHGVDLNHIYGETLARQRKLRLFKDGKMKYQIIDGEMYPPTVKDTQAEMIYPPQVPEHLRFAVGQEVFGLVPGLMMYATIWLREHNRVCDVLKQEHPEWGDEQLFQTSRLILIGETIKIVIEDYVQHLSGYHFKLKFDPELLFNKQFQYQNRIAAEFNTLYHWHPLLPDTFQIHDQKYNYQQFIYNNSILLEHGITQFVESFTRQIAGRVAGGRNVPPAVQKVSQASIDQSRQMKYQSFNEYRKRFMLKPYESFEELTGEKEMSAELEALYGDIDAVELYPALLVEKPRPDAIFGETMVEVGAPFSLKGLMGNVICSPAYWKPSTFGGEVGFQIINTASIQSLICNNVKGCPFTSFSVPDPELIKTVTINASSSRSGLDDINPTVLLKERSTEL
Protocol: The COX-2 inhibitory effects of NFA were investigated using a cell-based COX-2 activity assay performed using a Cyclooxygenase (COX) Activity Assay Kit (Fluorometric) from Abcam (Cambridge, UK; #ab204699). A549 cells (3 × 10^6) were seeded in 10-cm dishes and allowed to become adherent for 3 h. […] Then, cells were detached with a cell scraper and washed twice with 1× PBS before being resuspended in 100 µl lysis buffer (1× PBS containing 1% NP-40). The cells were incubated for 30 min with shaking on ice. After 3-min centrifugation at 12,000 ×g at 4°C, 20 µl supernatant was used for the COX activity assay. The assay was performed according to the manufacturer’s instructions in a white 96-well microplate with a clear bottom in duplicate. […] COX-2 activity was normalized to protein concentration.
Suppl. Figure 5: Effects of NFA on cellular COX-2 activity. COX-2 Activity of A549 cells […]
h. Cells were lysed, and COX-2 activity was measured using Cyclooxygenase (COX) Activity Assay Kit (Fluorometric) from Abcam. (A) NFA derivatives with different chain length. (B) NFA derivatives with different Michael acceptor position. Samples were normalized to protein concentration. Data are presented as mean + SD of n=4. COX, cyclooxygenase; DMSO, dimethyl sulfoxide NFA, nitro fatty acids .
(1 picture or pasted object on this page, not shown here)

PMNL = assay: WST-1 viability assay in PMNL; type: cell-based, human; settings: 20 µM, 2 h (data not shown)
Protocol: Cell viability was analyzed with the WST-1 assay based on the cleavage of the stable tetrazolium salt WST-1 by the mitochondrial reductase system. Cells were seeded in the appropriate densities in a clear 96-well plate and settled overnight at 37°C in 5% CO2. […] Cell viability was analyzed by adding 10 µl WST-1 solution (Roche, Basel, Switzerland) and subsequently incubating the cells at 37°C for another 30–40 min. Absorbance was measured at 450 nm with a control wavelength at 620 nm using a plate reader.
5-LO, the key enzyme in leukotriene biosynthesis, catalyzes the first steps in leukotriene formation from AA. Oxidation of AA by 5-LO leads to the formation of 5-hydroperoxyeicosatetraenoic acid (5-HPETE), which can further be converted to LTA4 or reduced to 5-HETE. In the next step, LTA4 is hydrolyzed by LTA4 hydrolase to produce LTB4. Moreover, 12- and 15-LO catalyze the formation of 12- and 15-H(P)ETE [12- and 15-hydro(per)oxyeicosatetraenoic acid]. Nitroalkylation of 5-LO cysteines 416 and 418 by NFA leads to enzyme inhibition and beneficial anti-inflammatory effects, whereas no impact has been observed on 12- and 15-LO so far ([Awwad et al., 2014]). 5-LO product formation of purified PMNL was triggered by incubation with 2.5 µM of the calcium ionophore A23187 in the presence of 20 µM AA. […] Shifting the nitro group from position 9 to 10, or rather, towards position 11 (18.11.11), led to a decreased impact on 15-LO product formation (Table 3). […] Therefore, 5-LO product formation of purified PMNL after treatment with A23187 was determined in absence of AA which should strongly increase the 5-LO-inhibitory potency of competitive inhibitors. However, IC50 values were similar under these conditions strengthening the hypothesis of NFA as presumably non-competitive 5-LO inhibitors. Using a WST-1 viability assay we assessed possible cytotoxic effects of the strongest 5-LO-inhibitory NFA derivatives in PMNL including 18.4.4, 18.5.5, 18.6.6, 18.7.7, 18.8.8, 18.8.9, 18.9.9, 18.9.10, 18.10.10, 20.9.9, and 22.9.9.

SMILES	effect on COX-2 activity in IL-1β-stimulated A549 cells (COX-2)	cytotoxic effects in PMNL (WST-1 viability) (PMNL)
CCC=C(CCCCCCCC(=O)O)[N+](=O)[O-] [12.9.9, 9-nitro-dodec-9-enoic acid]	failed increasing COX-2 product formation	
CCCCC=C(CCCCCCCC(=O)O)[N+](=O)[O-] [14.9.9, 9-nitro-tetradec-9-enoic acid]	failed increasing COX-2 product formation	
CCCCCCC=C(CCCCCCCC(=O)O)[N+](=O)[O-] [16.9.9, 9-nitro-hexadec-9-enoic acid]	failed increasing COX-2 product formation	
CCCCCCCCCCCCCC=C(CCC(=O)O)[N+](=O)[O-] [18.4.4, 4-nitro-octadec-4-enoic acid]		failed to induce significant cytotoxic effects
CCCCCCCCCCCCC=C(CCCC(=O)O)[N+](=O)[O-] [18.5.5, 5-nitro-octadec-5-enoic acid]		failed to induce significant cytotoxic effects
CCCCCCCCCCCC=C(CCCCC(=O)O)[N+](=O)[O-] [18.6.6, 6-nitro-octadec-6-enoic acid]	induced COX-2 activity	failed to induce significant cytotoxic effects
CCCCCCCCCCC=C(CCCCCC(=O)O)[N+](=O)[O-] [18.7.7, 7-nitro-octadec-7-enoic acid]		failed to induce significant cytotoxic effects
CCCCCCCCCC=C(CCCCCCC(=O)O)[N+](=O)[O-] [18.8.8, 8-nitro-octadec-8-enoic acid]	induced COX-2 activity	failed to induce significant cytotoxic effects
CCCCCCCCCC(=CCCCCCCC(=O)O)[N+](=O)[O-] [18.8.9, 9-nitro-octadec-8-enoic acid]		failed to induce significant cytotoxic effects
CCCCCCCCC=C(CCCCCCCC(=O)O)[N+](=O)[O-] [18.9.9, 9-nitro-octadec-9-enoic acid]	no COX-2 inhibition	failed to induce significant cytotoxic effects
CCCCCCCCC(=CCCCCCCCC(=O)O)[N+](=O)[O-] [18.9.10, 10-nitro-octadec-9-enoic acid]		failed to induce significant cytotoxic effects
CCCCCCCC=C(CCCCCCCCC(=O)O)[N+](=O)[O-] [18.10.10, 10-nitro-octadec-10-enoic acid]	slight COX-2 inhibition	failed to induce significant cytotoxic effects
CCCCCCCCCCC=C(CCCCCCCC(=O)O)[N+](=O)[O-] [20.9.9, 9-nitro-eicos-9-enoic acid]	no COX-2 inhibition; also recorded: increased COX-2 product formation	failed to induce significant cytotoxic effects
